{"source": "patent US12697331B2", "about": "“Methods of use of T-type calcium channel modulators” (PRAXIS PRECISION MEDICINES, INC., priority 2020, dated 2026)", "key": {"[1]": {"details": "cited from earlier work"}, "essential tremor": {"tested_on": "essential tremor", "details": "cited from earlier work; for Efficacy for treating essential tremors in clinical trials: adverse effects led to patient discontinuance"}, "[2]": {"test": "Within-participant escalating dose trial Part B (20-120 mg titration): pharmacokinetics", "details": "titrated dosing schedule", "quoted_text": "A trial was conducted to study the safety, tolerability, pharmacokinetics and pharmacodynamics of the compound of formula (I) in healthy participants. Each participant completed 3 study periods: Screening, Treatment period (12 or 31 days), and Safety follow-up.\nIn Part B, a randomized controlled trial was conducted. […] Patients were allowed to receive the compound of formula (I) daily at each of 60 mg, 80 mg, and 100 mg dose levels for an extended period of up to 2 days.\nPatients were discharged on D33 after all study assessments were completed and scheduled for Safety Follow-up on Day 36 (±1 day) via telephone call. Pharmacokinetics of the compound of formula (I) was evaluated by performing LC/MS quantification of levels of the compound in plasma and urine. […] Phamacokinetic parameters determined for the compound of formula (I) include, but are not limited to, AUCt, AUCinf, AUCtau, Cmax, tmax, t1/2, CL/F and Vd/F."}, "[3]": {"test": "Within-participant escalating dose trial Part B: safety and tolerability (TEAEs)", "type": "in vivo, human"}, "[4]": {"test": "Within-participant escalating dose trial Part A: safety and tolerability (TEAEs)", "type": "in vivo, human", "description": "(§1) In Part A, an open label trial was conducted."}, "[5]": {"test": "Within-participant escalating dose trial Part A (5, 10, 20 mg): plasma pharmacokinetics", "type": "in vivo, human", "description": "as §1"}, "[6]": {"test": "Phase 1 single and multiple ascending doses of formulation 3: safety and tolerability", "type": "in vivo, human", "details": "single 60 mg, 6 healthy volunteers, no titration", "description": "This was a 2-part, Phase 1 double blind, placebo controlled trial to assess the safety, tolerability, pharmacokinetics, and pharmacodynamics (including the KSS, the KDT, the SQSQ and 24-hour EEG recordings), of single, ascending (Part A: 20, 40, and 60 mg) and multiple, ascending (Part B: 20 and 40 mg for 8 days) doses of the 20 mg tablet (formulation 3) in healthy participants. […] Variability in Cmax and AUC increased with increasing dose following a single oral dose of the 20 mg tablet formulation (formulation 3) (FIG. 16).\nAdverse events for the doses of 20 and 40 mg were transient and occurred at a rate similar to placebo. The following TEAEs were observed, all of which were mild to moderate: […]"}, "[7]": {"details": "28-day essential tremor study (WO 2020/072773)"}}}
{"smiles": "CC(C)c1ccc(CC(=O)N[C@H](C)c2ccc(OCC(F)(F)F)cn2)cc1", "note": "[CX-8998]", "values": [{"measurement": "Titrated daily dose reached", "setting": "[1]; Papapetropoulos et al. 2019, 2021", "result": 20, "unit": "mg"}, {"measurement": "Highest non-titrated dose safely administered to patients", "setting": "[1]; single doses, WO 2020/072773", "result": 16, "unit": "mg"}, {"measurement": "Discontinuation due to intolerability of adverse events", "setting": "essential tremor; [7]", "result": 17, "unit": "%"}, {"measurement": "Discontinuation rate", "setting": "essential tremor; [7]", "result": 23, "unit": "%"}]}
{"smiles": "CC(C)(C)NC(=O)CN1CCC(CNC(=O)c2cc(F)cc(Cl)c2)CC1", "note": "[compound of formula (I), N-((1-(2-(tert-butylamino)-2-oxoethyl)piperidin-4-yl)methyl)-3-chloro-5-fluorobenzamide]", "values": [{"measurement": "Increase of Cmax and AUC24 above values of a lower dosage not tolerated without titration", "setting": "[2]", "result": "2-3 fold"}, {"measurement": "Participants with at least one TEAE", "setting": "[3]; human, in vivo, 31 days", "result": "12 (100%)^ n (%)"}, {"measurement": "TEAE: Cardiac Disorders", "setting": "[3]; human, in vivo, 31 days", "result": "4 (33.3%) n (%)"}, {"measurement": "TEAE: Chest discomfort", "setting": "[3]; human, in vivo, 31 days", "result": "2 (16.7%) n (%)"}, {"measurement": "TEAE: Dizziness", "setting": "[3]; human, in vivo, 31 days", "result": "3 (25.0%) n (%)"}, {"measurement": "TEAE: General Disorders and Administration Site Conditions", "setting": "[3]; human, in vivo, 31 days", "result": "6 (50.0%) n (%)"}, {"measurement": "TEAE: Headache", "setting": "[3]; human, in vivo, 31 days", "result": "2 (16.7%) n (%)"}, {"measurement": "TEAE: Intoxicated sensation", "setting": "[3]; human, in vivo, 31 days", "result": "2 (16.7%) n (%)"}, {"measurement": "TEAE: Medical device site dermatitis", "setting": "[3]; human, in vivo, 31 days", "result": "3 (25.0%) n (%)"}, {"measurement": "TEAE: Nervous System Disorders", "setting": "[3]; human, in vivo, 31 days", "result": "5 (41.7%) n (%)"}, {"measurement": "TEAE: Palpitations", "setting": "[3]; human, in vivo, 31 days", "result": "2 (16.7%) n (%)"}, {"measurement": "SAEs and severe AEs", "setting": "[3]; in vivo", "result": "no SAEs and no severe AEs"}, {"measurement": "Dose levels well-tolerated with a titrated dosing schedule", "setting": "[3]; titration 20 to 120 mg per day, no maximum tolerated dosage identified", "result": "≤ 120", "unit": "mg per day"}, {"measurement": "Participants with at least one TEAE", "setting": "[4]; 5 mg (N = 8)", "result": "5 (62.5%) n (%)"}, {"measurement": "TEAE: Dry eye", "setting": "[4]; 5 mg (N = 8)", "result": "1 (12.5%) n (%)"}, {"measurement": "TEAE: Eye disorders", "setting": "[4]; 5 mg (N = 8)", "result": "2 (25.0%) n (%)"}, {"measurement": "TEAE: General Disorders and Administration Site Conditions", "setting": "[4]; 5 mg (N = 8)", "result": "3 (37.5%) n (%)"}, {"measurement": "TEAE: Headache", "setting": "[4]; 5 mg (N = 8)", "result": "2 (25.0%) n (%)"}, {"measurement": "TEAE: Lethargy", "setting": "[4]; 5 mg (N = 8)", "result": "1 (12.5%) n (%)"}, {"measurement": "TEAE: Medical device site dermatitis", "setting": "[4]; 5 mg (N = 8)", "result": "1 (12.5%) n (%)"}, {"measurement": "TEAE: Nervous System Disorders", "setting": "[4]; 5 mg (N = 8)", "result": "2 (25.0%) n (%)"}, {"measurement": "TEAE: Vessel puncture site thrombosis", "setting": "[4]; 5 mg (N = 8)", "result": "1 (12.5%) n (%)"}, {"measurement": "Participants with at least one TEAE", "setting": "[4]; 10 mg (N = 8)", "result": "5 (62.5%) n (%)"}, {"measurement": "TEAE: Dry eye", "setting": "[4]; 10 mg (N = 8)", "result": "2 (25.0%) n (%)"}, {"measurement": "TEAE: Eye disorders", "setting": "[4]; 10 mg (N = 8)", "result": "2 (25.0%) n (%)"}, {"measurement": "TEAE: General Disorders and Administration Site Conditions", "setting": "[4]; 10 mg (N = 8)", "result": "3 (37.5%) n (%)"}, {"measurement": "TEAE: Headache", "setting": "[4]; 10 mg (N = 8)", "result": "0 n (%)"}, {"measurement": "TEAE: Lethargy", "setting": "[4]; 10 mg (N = 8)", "result": "0 n (%)"}, {"measurement": "TEAE: Medical device site dermatitis", "setting": "[4]; 10 mg (N = 8)", "result": "2 (25.0%) n (%)"}, {"measurement": "TEAE: Nervous System Disorders", "setting": "[4]; 10 mg (N = 8)", "result": "0 n (%)"}, {"measurement": "TEAE: Vessel puncture site thrombosis", "setting": "[4]; 10 mg (N = 8)", "result": "1 (12.5%) n (%)"}, {"measurement": "Participants with at least one TEAE", "setting": "[4]; 20 mg (N = 8)", "result": "3 (37.5%) n (%)"}, {"measurement": "TEAE: Dry eye", "setting": "[4]; 20 mg (N = 8)", "result": "0 n (%)"}, {"measurement": "TEAE: Eye disorders", "setting": "[4]; 20 mg (N = 8)", "result": "0 n (%)"}, {"measurement": "TEAE: General Disorders and Administration Site Conditions", "setting": "[4]; 20 mg (N = 8)", "result": "1 (12.5%) n (%)"}, {"measurement": "TEAE: Headache", "setting": "[4]; 20 mg (N = 8)", "result": "1 (12.5%) n (%)"}, {"measurement": "TEAE: Medical device site dermatitis", "setting": "[4]; 20 mg (N = 8)", "result": "0 n (%)"}, {"measurement": "TEAE: Nervous System Disorders", "setting": "[4]; 20 mg (N = 8)", "result": "1 (12.5%) n (%)"}, {"measurement": "TEAE: Vessel puncture site thrombosis", "setting": "[4]; 20 mg (N = 8)", "result": "0 n (%)"}, {"measurement": "Participants with at least one TEAE", "setting": "[4]; Overall (N = 8)", "result": "7 (87.5%) n (%)"}, {"measurement": "TEAE: Dry eye", "setting": "[4]; Overall (N = 8)", "result": "3 (37.5%) n (%)"}, {"measurement": "TEAE: Eye disorders", "setting": "[4]; Overall (N = 8)", "result": "3 (37.5%) n (%)"}, {"measurement": "TEAE: Headache", "setting": "[4]; Overall (N = 8)", "result": "3 (37.5%) n (%)"}, {"measurement": "TEAE: Lethargy", "setting": "[4]; Overall (N = 8)", "result": "2 (25.0%) n (%)"}, {"measurement": "TEAE: Medical device site dermatitis", "setting": "[4]; Overall (N = 8)", "result": "3 (37.5%) n (%)"}, {"measurement": "TEAE: Nervous System Disorders", "setting": "[4]; Overall (N = 8)", "result": "3 (37.5%) n (%)"}, {"measurement": "TEAE: Vessel puncture site thrombosis", "setting": "[4]; Overall (N = 8)", "result": "2 (25.0%) n (%)"}, {"measurement": "Time the compound remained quantifiable in plasma", "setting": "[5]; 5 mg dose, 24 hour sampling period", "result": "≥ 24", "unit": "h"}, {"measurement": "Time by which plasma concentrations were quantifiable", "setting": "[5]; single 5 mg dose, healthy volunteers", "result": "≤ 0.50", "unit": "h"}, {"measurement": "Tolerability", "setting": "[6]", "result": "not tolerated"}]}
{"smiles": "CC1(C)O[C@@H]2[C@@H](CO[C@@]3(COS(N)(=O)=O)OC(C)(C)O[C@@H]23)O1", "note": "[topiramate]", "values": [{"measurement": "Efficacy for treating essential tremors in clinical trials", "setting": "essential tremor", "result": "effective"}]}
{"smiles": "NS(=O)(=O)Cc1noc2ccccc12", "note": "[zonisamide]", "values": [{"measurement": "Efficacy for treating essential tremors in clinical trials", "setting": "essential tremor", "result": "effective"}]}
